Test results from patent US20120029187A1, “HALOALKYLSULFONANILIDE DERIVATIVE” (Nissan Chemical Industries, Ltd., priority 2009, published 2012).

What was measured:
Format in all cases: in vivo
barnyardgrass [1] = test: Test Example 1: herbicidal effects in preemergence treatment under submerged conditions; settings: dose 2.52 g/a
Outline: (§1)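 Flooded-paddy preemergence assay; EC diluted with water, surface-applied at weed seeding; doses g/a; rice transplanted at 2.5 leaves; 0–5 mortality score after 3 weeks.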

bulrush [2] = test: as above; settings: dose 2.52 g/a
Outline: as §1

ducksalad [3] = test: as above; settings: dose 2.52 g/a
Outline: as §1

transplanted rice = test: Test Example 1: preemergence treatment under submerged conditions, effect on crop; settings: dose 2.52 g/a
Outline: as §1

barnyardgrass [4] = test: Test Example 2: herbicidal effects during the vegetation period under submerged conditions; settings: treatment during the vegetation period under submerged conditions; dose 2.52 g/a
Outline: (§2)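 Barnyardgrass, bulrush and ducksalad were co-sown in alluvial soil flooded to 4 cm and grown in a greenhouse at 25 to 30° C. At the 1- or 2-leaf stage, water-diluted emulsifiable concentrates went onto the water surface at set doses (g/a). Herbicidal effect was scored three weeks later on a graded scale.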

bulrush [5] = test: as above; settings: treatment during the vegetation period under submerged conditions; dose 2.52 g/a
Outline: as §2

ducksalad [6] = test: as above; settings: treatment during the vegetation period under submerged conditions; dose 2.52 g/a
Outline: as §2

Italian ryegrass [7] = test: Test Example 3: herbicidal effects in soil treatment; settings: dose 6.3 g/a
Outline: (§3)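 Seeds were sown in sterilized diluvial soil and covered with about 1.5 cm of soil. Compounds, formulated as emulsifiable concentrates and diluted with water, were sprayed evenly over the soil surface at set doses in g/a. Herbicidal effect was scored on a rating scale three weeks later.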

barnyardgrass [8] = test: as above; settings: dose 6.3 g/a
Outline: as §3

common chickweed [9] = test: as above; settings: dose 6.3 g/a
Outline: as §3

common lambsquater [10] = test: as above; settings: dose 6.3 g/a
Outline: as §3

common ragweed [11] = test: as above; settings: dose 6.3 g/a
Outline: as §3

giant foxtail [12] = test: as above; settings: dose 6.3 g/a
Outline: as §3

large crabgrass [13] = test: as above; settings: dose 6.3 g/a
Outline: as §3

posumbu knotweed [14] = test: as above; settings: dose 6.3 g/a
Outline: as §3

redroot pigweed [15] = test: as above; settings: dose 6.3 g/a
Outline: as §3

velvetleaf [16] = test: as above; settings: dose 6.3 g/a
Outline: as §3

water foxtail [17] = test: as above; settings: dose 6.3 g/a
Outline: as §3

wild oat [18] = test: as above; settings: dose 6.3 g/a
Outline: as §3

Italian ryegrass [19] = test: Test Example 4: herbicidal effect in foliage treatment; settings: dose 6.3 g/a, three weeks after application
Outline: (§4)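 Sowing in sterilized diluvial soil, ~1.5 cm cover; growth 14 d, 25–30° C greenhouse; foliar spray of water-diluted EC at predetermined g/a; scoring 3 wk later on graded scale.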

barnyardgrass [20] = test: as above; settings: dose 6.3 g/a, three weeks after application
Outline: as §4

beadstraw = test: as above; settings: dose 6.3 g/a, three weeks after application
Outline: as §4

common chickweed [21] = test: as above; settings: dose 6.3 g/a, three weeks after application
Outline: as §4

common lambsquater [22] = test: as above; settings: dose 6.3 g/a, three weeks after application
Outline: as §4

common ragweed [23] = test: as above; settings: dose 6.3 g/a, three weeks after application
Outline: as §4

giant foxtail [24] = test: as above; settings: dose 6.3 g/a, three weeks after application
Outline: as §4

large crabgrass [25] = test: as above; settings: dose 6.3 g/a, three weeks after application
Outline: as §4

posumbu knotweed [26] = test: as above; settings: dose 6.3 g/a, three weeks after application
Outline: as §4

redroot pigweed [27] = test: as above; settings: dose 6.3 g/a, three weeks after application
Outline: as §4

velvetleaf [28] = test: as above; settings: dose 6.3 g/a, three weeks after application
Outline: as §4

water foxtail [29] = test: as above; settings: dose 6.3 g/a, three weeks after application
Outline: as §4

wild oat [30] = test: as above; settings: dose 6.3 g/a, three weeks after application
Outline: as §4

In the case of CCOC(=O)N(c1ccccc1CN1CCS(=O)(=O)CC1=O)S(=O)(=O)C(F)(F)F [Compound I-19, 4-[2-(N-ethoxycarbonyl-N-trifluoromethanesulfonyl)aminobenzyl]-1,4-thiazinan-1,1-dioxide-3-one], the “A: barnyardgrass, herbicidal effect (evaluation scale 0-5)” value (barnyardgrass [1]) is reported as 5 (mortality of 90% or above (nearly complete death)), the “B: bulrush, herbicidal effect (evaluation scale 0-5)” value (bulrush [2]) is reported as 5 (mortality of 90% or above (nearly complete death)) and the “C: ducksalad, herbicidal effect (evaluation scale 0-5)” value (ducksalad [3]) is reported as 5 (mortality of 90% or above (nearly complete death)). For the same compound, the “a: transplanted rice, effect on crop (evaluation scale 0-5)” value (transplanted rice) was 0 (mortality of less than 5% (almost ineffective)), the “A: barnyardgrass, herbicidal effect (evaluation scale 0-5)” value (barnyardgrass [4]) was 3 (mortality of at least 40% and less than 70%) and the “B: bulrush, herbicidal effect (evaluation scale 0-5)” value (bulrush [5]) was 5 (mortality of 90% or above (nearly complete death)). For the same compound, the “C: ducksalad, herbicidal effect (evaluation scale 0-5)” value (ducksalad [6]) was 4 (mortality of at least 70% and less than 90%), the “H: Italian ryegrass, herbicidal effect (evaluation scale 0-5)” value (Italian ryegrass [7]) was 2 (mortality of at least 20% and less than 40%) and the “A: barnyardgrass, herbicidal effect (evaluation scale 0-5)” value (barnyardgrass [8]) was 4 (mortality of at least 70% and less than 90%). The “N: common chickweed, herbicidal effect (evaluation scale 0-5)” value (common chickweed [9]) was 5 (mortality of 90% or above (nearly complete death)), the “L: common lambsquater, herbicidal effect (evaluation scale 0-5)” value (common lambsquater [10]) was 5 (mortality of 90% or above (nearly complete death)) and the “J: common ragweed, herbicidal effect (evaluation scale 0-5)” value (common ragweed [11]) was 4 (mortality of at least 70% and less than 90%). The “E: giant foxtail, herbicidal effect (evaluation scale 0-5)” value (giant foxtail [12]) was 4 (mortality of at least 70% and less than 90%), the “D: large crabgrass, herbicidal effect (evaluation scale 0-5)” value (large crabgrass [13]) was 4 (mortality of at least 70% and less than 90%) and the “M: posumbu knotweed, herbicidal effect (evaluation scale 0-5)” value (posumbu knotweed [14]) was 4 (mortality of at least 70% and less than 90%). For the same compound, the “K: redroot pigweed, herbicidal effect (evaluation scale 0-5)” value (redroot pigweed [15]) was 4 (mortality of at least 70% and less than 90%), the “I: velvetleaf, herbicidal effect (evaluation scale 0-5)” value (velvetleaf [16]) was 2 (mortality of at least 20% and less than 40%) and the “G: water foxtail, herbicidal effect (evaluation scale 0-5)” value (water foxtail [17]) was 5 (mortality of 90% or above (nearly complete death)). The “F: wild oat, herbicidal effect (evaluation scale 0-5)” value (wild oat [18]) was 0 (mortality of less than 5% (almost ineffective)), the “H: Italian ryegrass, herbicidal effect” value (Italian ryegrass [19]) was 3 (mortality of at least 40% and less than 70%) and the “A: barnyardgrass, herbicidal effect” value (barnyardgrass [20]) was 4 (mortality of at least 70% and less than 90%). The “O: beadstraw, herbicidal effect” value (beadstraw) was 4 (mortality of at least 70% and less than 90%), the “N: common chickweed, herbicidal effect” value (common chickweed [21]) was 4 (mortality of at least 70% and less than 90%) and the “L: common lambsquater, herbicidal effect” value (common lambsquater [22]) was 4 (mortality of at least 70% and less than 90%). The “J: common ragweed, herbicidal effect” value (common ragweed [23]) was 4 (mortality of at least 70% and less than 90%), the “E: giant foxtail, herbicidal effect” value (giant foxtail [24]) was 4 (mortality of at least 70% and less than 90%) and the “D: large crabgrass, herbicidal effect” value (large crabgrass [25]) was 4 (mortality of at least 70% and less than 90%). The “M: posumbu knotweed, herbicidal effect” value (posumbu knotweed [26]) was 3 (mortality of at least 40% and less than 70%), the “K: redroot pigweed, herbicidal effect” value (redroot pigweed [27]) was 4 (mortality of at least 70% and less than 90%) and the “I: velvetleaf, herbicidal effect” value (velvetleaf [28]) was 3 (mortality of at least 40% and less than 70%). For the same compound, the “G: water foxtail, herbicidal effect” value (water foxtail [29]) was 5 (mortality of 90% or above (nearly complete death)) and the “F: wild oat, herbicidal effect” value (wild oat [30]) was 0 (mortality of less than 5% (almost ineffective)).
